In US10183063B2, “Injection composition comprising hyaluronidase for removal of topical fat” (priority 2016, dated 2019):

What was measured:
topical fat = format: in vivo, human
Description: In order to find the optimal doses of hyaluronidase facilitating lipolysis, the present inventor conducted experiments with hyaluronidase unit doses of 10 IU, 50 IU, 100 IU, 150 IU, 200 IU, 250 IU, 300 IU, 350 IU, 400 IU, 450 IU, 500 IU, 550 IU, 600 IU, 650 IU, 700 IU, 750 IU, 800 IU, 850 IU, 900 IU, 950 IU, 1000 IU, 1050 IU, 1100 IU, 1150 IU, 1200 IU, 1250 IU, 1300 IU, 1350 IU, 1400 IU, 1450 IU, and 1500 IU.
It was shown in clinical trials that at the above dose range, if the injection composition is administered in a volume of 1 cc containing 300 IU of hyaluronidase, the diameter of the diffusion range is about 1 cm. Thus, with the hyaluronidase dose set at 300 IU to 600 IU, by injecting the composition at a volume of 0.5 to 2 cc depending on the hyaluronidase dose and at injection points with an interval of 0.5 to 1.5 cm between the injection points, injection at narrow intervals is possible and consequently, lipolysis occurs evenly. Furthermore, a lifting effect occurs concomitantly where skin resilience is improved by the promotion of collagen production through stimulation of the skin by the injection needle.
Thus, by administering an injection composition of the present invention having the above compositional ranges, the side effects from using the drugs are minimized and fat removal over a wide area can be carried out using a minimal volume.
It was shown in clinical trials that at a hyaluronidase of 300 IU, the diameter of the diffusion range for the injection composition is about 1 cm. Thus, by injecting the composition at narrow intervals between injection points of 0.5 to 2 cm, even fat removal as well as collagen production by skin stimulation can be facilitated.

| Compound | Lipolysis (topical fat; unit dose 300 IU or below) | Fat removal (topical fat; unit dose above 600 IU) | Fat removal effect and side effects (topical fat; unit dose of 300 IU to 600 IU) | minimum amount of hyaluronidase exhibiting efficacy (topical fat; unit dose per injection) [IU] | time until the onset of action for the local anesthetic effect, later compared to lidocaine |
| --- | --- | --- | --- | --- | --- |
| hyaluronidase | sufficient lipolysis did not occur | excellent effects were obtained in terms of fat removal | possible to ensure the fat removal effect while minimizing side effects | 300 |  |
| CCN(CC)CCOC(=O)c1ccc(N)cc1 [procaine] |  |  |  |  | more than 10 minutes |
